Bridges are numbered along the chain shown (N, C = ends). [ ]: non-standard residue; d: D form. Pen = CC(C)(S)[C@H](N)C(=O)O; Nle = CCCC[C@H](N)C(=O)O; GABA = NCCCC(=O)O
Legend:
hMC1-R [1] = target: T1, hMC1-R (Homo sapiens, UniProt Q01726); assay: cyclic AMP bioassay (ECL), CHO-K1 cells expressing hMC1-R; format: cell-based; conditions: Table 3B, cAMP
T1 construct: expressed in transfected cells; host or cells: CHO-K1 (membranes)
Method: (§4) Intracellular cyclic AMP (cAMP) levels were determined by an electrochemiluminescence (ECL) assay (Meso Scale Discovery®, Gaithersburg, Md.; referred to hereinafter as MSD). […] Transgenic CHO-K1 cells stably expressing hMC receptor subtypes 1, 3, 4 or 5 were dispensed at a density of approximately 7,000 cells/well in 384-well Multi-Array® plates (MSD) containing integrated carbon electrodes and coated with anti-cAMP antibody. Increasing concentrations of the test compounds were added and the cells were incubated for approximately 40 minutes at approximately 37° C. […] At the end of the second incubation period read buffer (Tris-buffered solution containing an ECL co-reactant and Triton X-100 at ph 7.8) was added and the cAMP levels in the cell lysates were immediately determined by ECL detection with a Sector Imager 6000 Reader® (MSD). Data were analyzed using a computer-assisted non-linear regression analysis (XL fit; IDBS) and reported as either an EC50 value or a Kb value.

hMC5-R [2] = target: T2, hMC5-R (Homo sapiens, UniProt P33032); assay: Radioligand binding assay, [125I]-NDP-α-MSH competition, hMC5-R; conditions: CHO-K1 cell membranes
T2 construct: expressed in transfected cells; host or cells: CHO-K1 (membranes)
T2 sequence (P33032 whole entry): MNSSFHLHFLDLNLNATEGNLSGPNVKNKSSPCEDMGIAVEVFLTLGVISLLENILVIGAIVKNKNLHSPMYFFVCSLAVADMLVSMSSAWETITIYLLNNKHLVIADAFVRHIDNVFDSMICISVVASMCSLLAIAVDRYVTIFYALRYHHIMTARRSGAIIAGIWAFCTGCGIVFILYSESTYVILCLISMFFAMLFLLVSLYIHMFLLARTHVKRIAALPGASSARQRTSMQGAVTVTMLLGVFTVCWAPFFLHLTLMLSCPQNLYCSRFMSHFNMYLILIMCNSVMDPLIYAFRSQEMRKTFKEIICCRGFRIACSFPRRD
Method: (§1) Radioligand Binding Assays
(§2) Cellular membranes used for the in vitro receptor binding assays were obtained from transgenic CHO-K1 cells stably expressing hMC-R receptor subtypes 1, 3, 4 or 5. […] The pellets were resuspended in the same buffer and centrifuged at 50,000 g for 10 minutes at approximately 4° C. The washed pellets containing the cellular membranes were stored at approximately −80° C.
(§3) Filters were washed three times with 50 mM Tris-HCl at pH 7.4 at a temperature of approximately 0-4° C. and then assayed for radioactivity using a Packard Topcount® scintillation counter. Binding data were analyzed by computer-assisted non-linear regression analysis (XL fit; IDBS).

hMC4-R [3] = target: T3, hMC4-R (Homo sapiens, UniProt P32245); assay: Radioligand binding assay, [125I]-NDP-α-MSH competition, hMC4-R; conditions: CHO-K1 cell membranes
T3 construct: expressed in transfected cells; host or cells: CHO-K1 (membranes)
T3 sequence (P32245 whole entry): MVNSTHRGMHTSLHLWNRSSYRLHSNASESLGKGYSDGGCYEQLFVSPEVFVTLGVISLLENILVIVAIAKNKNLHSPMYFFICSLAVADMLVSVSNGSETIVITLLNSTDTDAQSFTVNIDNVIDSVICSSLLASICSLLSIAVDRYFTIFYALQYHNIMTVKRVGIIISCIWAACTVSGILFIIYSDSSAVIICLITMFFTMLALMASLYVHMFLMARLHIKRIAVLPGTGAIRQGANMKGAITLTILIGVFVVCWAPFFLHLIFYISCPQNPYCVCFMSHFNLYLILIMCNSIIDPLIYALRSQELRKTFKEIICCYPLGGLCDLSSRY
Method: as §1, §2, §3

hMC1-R [4] = target: T1, hMC1-R; assay: Radioligand binding assay, [125I]-NDP-α-MSH competition, hMC1-R; conditions: CHO-K1 cell membranes
Method: as §1, §2, §3

hMC4-R [5] = target: T3, hMC4-R; assay: cyclic AMP bioassay (ECL), CHO-K1 cells expressing hMC4-R; format: cell-based; conditions: Table 3B, cAMP
Method: as §4

hMC3-R [6] = target: T4, hMC3-R (Homo sapiens, UniProt P41968); assay: Radioligand binding assay, [125I]-NDP-α-MSH competition, hMC3-R; conditions: CHO-K1 cell membranes
T4 construct: expressed in transfected cells; host or cells: CHO-K1 (membranes)
T4 sequence (P41968 whole entry): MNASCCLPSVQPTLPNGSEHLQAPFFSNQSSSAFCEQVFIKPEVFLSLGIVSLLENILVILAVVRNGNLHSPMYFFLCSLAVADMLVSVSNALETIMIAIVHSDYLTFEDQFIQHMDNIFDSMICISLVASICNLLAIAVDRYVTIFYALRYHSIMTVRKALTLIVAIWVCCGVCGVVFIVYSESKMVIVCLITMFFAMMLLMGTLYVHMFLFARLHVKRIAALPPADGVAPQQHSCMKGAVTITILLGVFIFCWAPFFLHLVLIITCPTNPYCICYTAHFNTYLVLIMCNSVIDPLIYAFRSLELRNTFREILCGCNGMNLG
Method: as §1, §2, §3

hMC3-R [7] = target: T4, hMC3-R; assay: cyclic AMP bioassay (ECL), CHO-K1 cells expressing hMC3-R; format: cell-based; conditions: Table 3B, cAMP
Method: as §4

hMC5-R [8] = target: T2, hMC5-R; assay: cyclic AMP bioassay (ECL), CHO-K1 cells expressing hMC5-R; format: cell-based; conditions: Table 3B, cAMP
Method: as §4

T1 sequence (Q01726 whole entry): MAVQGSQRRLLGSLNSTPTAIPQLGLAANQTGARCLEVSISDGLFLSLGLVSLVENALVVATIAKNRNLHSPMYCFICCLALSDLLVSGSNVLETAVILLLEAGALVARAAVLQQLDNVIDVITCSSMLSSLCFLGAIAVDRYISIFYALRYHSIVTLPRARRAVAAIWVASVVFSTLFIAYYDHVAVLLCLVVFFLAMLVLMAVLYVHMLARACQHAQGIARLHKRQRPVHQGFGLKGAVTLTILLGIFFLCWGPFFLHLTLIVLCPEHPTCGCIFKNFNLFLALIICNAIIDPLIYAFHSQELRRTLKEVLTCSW

EC50 (hMC1-R [1]): 0.28 nM
Ki (hMC5-R [2]): 0.42 nM
Ki (hMC4-R [3]): 0.43 nM
Ki (hMC1-R [4]): 0.12 nM
EC50 (hMC4-R [5]): 0.028 nM
Ki (hMC3-R [6]): 10 nM
EC50 (hMC3-R [7]): 0.24 nM
EC50 (hMC5-R [8]): 3.9 nM
Substance: Ac-[Nle]CH[dF]RW[GABA][Pen]-NH2 (disulfide 2-8)
